Laboratory results as given in patent US20230143751A1, “Aromatic Compound And Use Thereof In Preparing Antineoplastic Drugs” (Shanghai Zheye Biotechnology Co. Ltd., priority 2020, published 2023).
pIC50: −log10 of the molar value. Where two headings read alike, the source gives them in different places.

Legend:
[1] = Preliminary safety test, 5-day escalating oral dosing in Balb/c mice; type: in vivo
Description: Test samples: Compound 3-2, Compound 3-6, Compound 3-12M, Compound 3-20, and Compound 4-8.
Animal species and number: Balb/c; 6 animals per group (half male and half female).
Administration mode: oral administration by gavage.
Animal grouping and administration dose: vehicle blank group, Compound 3-2 group (200 mg/kg, 400 mg/kg, 800 mg/kg), Compound 3-6 group (200 mg/kg, 400 mg/kg, 800 mg/kg), Compound 3-12M group (200 mg/kg, 400 mg/kg, 800 mg/kg), Compound 3-20 group (200 mg/kg, 400 mg/kg, 800 mg/kg), Compound 4-8 group (200 mg/kg, 400 mg/kg, 800 mg/kg).
Administration frequency: once a day for 5 days.
General clinical observations were performed 2 times a day (once in the morning and once in the afternoon) during the test period. Death, morbidity, respiration, secretions, feces, and diet, drinking situation and so on were observed, and the changes in body weight of the mice during the administration period were recorded. The animals in each group were euthanized after the administration, and all animals were dissected and subjected to gross observation.

[2] = target: T1, human-derived MDR1 (MDR1 coding P-gp) transporter protein (Homo sapiens, UniProt P08183); assay: Transport effect of transporter MDR1 (vesicle uptake, P-gp substrate assessment); type: in vitro ADME; conditions: vesicles expressing human-derived MDR1, 37° C.
T1 construct: expressed in transfected cells; host or cells: membrane vesicles expressing human MDR1
T1 sequence (P08183 whole entry): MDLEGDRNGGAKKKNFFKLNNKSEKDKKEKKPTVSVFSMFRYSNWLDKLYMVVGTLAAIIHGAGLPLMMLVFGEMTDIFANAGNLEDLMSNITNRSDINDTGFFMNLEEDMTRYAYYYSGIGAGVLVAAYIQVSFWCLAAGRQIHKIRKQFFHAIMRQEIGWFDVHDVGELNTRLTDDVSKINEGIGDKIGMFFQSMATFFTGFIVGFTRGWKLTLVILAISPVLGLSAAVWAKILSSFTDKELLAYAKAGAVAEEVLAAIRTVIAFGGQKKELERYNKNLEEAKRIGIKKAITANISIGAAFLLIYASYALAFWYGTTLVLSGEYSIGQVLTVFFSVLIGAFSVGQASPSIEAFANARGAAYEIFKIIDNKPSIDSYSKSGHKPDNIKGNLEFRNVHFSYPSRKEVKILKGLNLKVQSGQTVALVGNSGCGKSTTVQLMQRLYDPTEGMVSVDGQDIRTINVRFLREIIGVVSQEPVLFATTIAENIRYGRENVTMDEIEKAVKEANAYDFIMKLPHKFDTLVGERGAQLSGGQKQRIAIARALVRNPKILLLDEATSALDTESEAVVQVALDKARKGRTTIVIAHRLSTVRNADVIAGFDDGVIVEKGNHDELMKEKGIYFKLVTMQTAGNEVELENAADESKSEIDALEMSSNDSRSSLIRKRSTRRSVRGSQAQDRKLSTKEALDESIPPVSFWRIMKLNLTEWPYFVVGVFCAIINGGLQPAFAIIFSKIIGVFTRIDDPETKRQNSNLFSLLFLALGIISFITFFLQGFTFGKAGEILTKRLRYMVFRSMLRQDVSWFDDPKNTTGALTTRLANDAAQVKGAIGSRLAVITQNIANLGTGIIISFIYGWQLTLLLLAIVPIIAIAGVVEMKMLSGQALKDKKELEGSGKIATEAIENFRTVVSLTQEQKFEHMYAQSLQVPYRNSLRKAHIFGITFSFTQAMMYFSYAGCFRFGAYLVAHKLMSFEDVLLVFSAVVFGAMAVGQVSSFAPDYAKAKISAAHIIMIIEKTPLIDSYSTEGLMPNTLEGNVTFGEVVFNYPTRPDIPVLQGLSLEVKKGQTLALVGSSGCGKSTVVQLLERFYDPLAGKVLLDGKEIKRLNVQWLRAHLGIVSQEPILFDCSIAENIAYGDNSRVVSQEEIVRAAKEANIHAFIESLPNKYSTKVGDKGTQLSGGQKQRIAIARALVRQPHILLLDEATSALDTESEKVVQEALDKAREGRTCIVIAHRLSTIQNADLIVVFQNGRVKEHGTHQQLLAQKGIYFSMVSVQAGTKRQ
Description: For this test, fluorescein and N-methylquinidine were used as the probe substrates in positive control group. ATP-containing test sample or positive control samples were prepared and pre-incubated with MDR1 vesicles at 37° C. After the pre-incubation, the two kinds of samples were mixed and co-incubated at 37° C. The samples were then transferred to a 96-well filter plate, and washed by suction filtration. The vesicles on the filter plate were lysed by using 80% of methanol, and then centrifuged to collect the filtrate. The filtrate was added with pre-cooled methanol containing internal standard. After the centrifugation, the obtained supernatant was taken and the test sample or positive control samples were detected.

KRAS G12C = KRAS G12C (Homo sapiens, UniProt P01116, G12C); assay: Effect on KRAS(G12C) enzyme activity (KRAS G12C/c-Raf binding, Eu/d2 energy transfer); type: biochemical
Sequence of KRAS G12C (P01116 1-188 isoform P01116-2 G12C): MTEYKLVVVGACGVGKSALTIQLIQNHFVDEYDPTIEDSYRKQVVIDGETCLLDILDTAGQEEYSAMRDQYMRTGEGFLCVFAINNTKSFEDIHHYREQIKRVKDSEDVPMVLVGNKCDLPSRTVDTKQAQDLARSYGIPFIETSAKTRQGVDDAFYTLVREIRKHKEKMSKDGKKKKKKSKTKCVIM
Description: Compound stock solution was taken, and the test compound was subjected to gradient elution in DMSO. The above diluted compound was added into a quantitative volume of enzyme reaction buffer and subjected to oscillation on a microplate oscillator for 20 min.
4 μL of enzyme was transferred to a 384-well reaction plate. 1 μL of the test compound was added into the 384-well reaction plate. The plate was sealed with sealing film, and the reaction plate with the compound was centrifuged at 1000 rpm for 1 min and incubated for 60 min. 5 μL of a mixture of substrate and antibody was transferred to the 384-well reaction plate. The plate was sealed with sealing film, then centrifuged at 1000 rpm for 1 min and incubated for 120 min at room temperature.
Ratiopositive control: average value of the ratios of 10 positive control wells; Rationegative control: average value of the ratios of 10 negative control wells.

[3] = system: NCI-H358-derived xenograft tumor; assay: Pharmacodynamics study of H358-derived xenograft tumor model (test 9); type: in vivo, nude mice; conditions: 3-12M 20 and 100 mg/kg, ARS1620 100 mg/kg, i.g., QD×28 days
Description: Animal species and number: Balb/c Nude; 10 animals per group.
Test samples: Compound ARS1620 (the representative inhibitor targeting KRAS G12C tumor
target, acquired by purchase) and Compound 3-12M.
Test groups: blank solvent control group;
Compound ARS1620 (100 mg/kg, i.g., QD×28 days);
Compound 3-12M (20 mg/kg, i.g., QD×28 days);
Compound 3-12M (100 mg/kg, i.g., QD×28 days).
(§1) NCI-H358 tumor cells in logarithmic growth phase were cultured in vitro and collected, and inoculated subcutaneously into the right back of nude mice at a quantity of 5×10^6 cells/each. When the tumor volume reached 150˜300 mm^3, the tumor-bearing nude mice were randomly grouped. Subsequently, the animals in each group were administered, and the day of the first administration was defined as day 1 of the test.
(§2) Administration route and frequency: oral administration by gavage; once a day.
(§3) General state observation: observation time and frequency: once a day; observation indexes or contents: including but not limited to administration location, appearance and signs, general behavioral activities, mental status, death and other abnormal performance of the animals. The animals were euthanized at the end of the test.
Tumor volume calculation: V=½×long diameter×short diameter^2 (mm^3).

[4] = system: MIA PaCa-2-derived xenograft tumor; assay: Pharmacodynamics test of MIA PaCa-2-derived xenograft tumor model in nude mice (test 6); type: in vivo
Description: Animal species and number: Balb/c Nude; 6 animals per group.
Test samples: Compound 3-2, Compound 3-6, Compound 3-20, Compound 3-12M.
Test groups: blank solvent control group; Compound 3-2 (10 mg/kg, QD×15 days), Compound 3-6 (10 mg/kg, QD×15 days), Compound 3-20 (10 mg/kg, QD×15 days), Compound 3-12M (10 mg/kg, QD×15 days).
as §1, with “Animal model establishment: MIA paca-2” for “NCI-H358”, “150-300” for “150˜300”
as §2, §3
Tumor volume calculation: V=½×long diameter×short diameter^2 (mm^3). Tumor growth inhibition rate TGI (%) is used to evaluate the tumor inhibition efficacy of the compounds. TGI (%)=[1−(mean tumor volume in treatment group at the end of administration−mean tumor volume in treatment group at the beginning of administration)/(mean tumor volume in control group at the end of administration−mean tumor volume in control group at the beginning of administration)]×100%.

NCI-H358 cells = assay: Cell proliferation activity of NCI-H358 by CellTiter-Glo reagent; type: cell-based
Description: NCI-H358 cells in exponential growth phase were digested with trypsin-EDTA, plated in a 96-well plate with 2000-3000 cells per well, and incubated overnight at 37° C. with 5% CO2. […] After the incubation, CellTiter-Glo test reagent with an equal volume was added into each well and the obtained 96-well plate was incubated after shaking. The chemiluminescence values were determined by microplate reader, and the IC50 values of the test compounds inhibiting the proliferation of NCI-H358 cells were fitted and calculated by GraphPad Prism software.
The test method of inhibitory activity was the same as that in Test 3 in “Biological Tests” part.

[2H]C([2H])=Cc1cccc(F)c1-c1nc2c(cc1Cl)c(N1CCN(C(=O)C=C)C[C@@H]1C)nc(=O)n2-c1c(C)ccnc1C(C)C [Compound 3-12M]
MTD at 5 days ([1]; both sexes, mouse, in vivo, oral gavage, 5 days, initially suggested, read-out: maximum tolerated dose): > 800 mg/kg
water and food intake, activity and body weight during the administration period (in words) ([1]; oral gavage once a day for 5 days, 200 to 800 mg/kg): no significant abnormality was showed
substrate for P-gp (in words) [2]: not a substrate for P-gp
inhibitory activity on KRAS G12C enzyme compared with AMG510 (in words) (KRAS G12C): remarkable better
inhibitory activity on tumor growth in vivo compared with ARS1620 (in words) [3]: significantly better than that of ARS1620
inhibition effect on the growth of subcutaneously transplanted tumors derived from pancreatic cancer MIA paca-2 cells in nude mice (in words) ([4]; 10 mg/kg QD×15 days): significant inhibition effect
tumor inhibition rate compared with Compound 3-20 (in words) ([4]; 10 mg/kg QD×15 days): higher than that of Compound 3-20
Tumor inhibition rate (%) ([4]; MIA PaCa-2 xenograft, nude mice, 10 mg/kg oral gavage QD×15 days): +++ (“+++” represents a tumor inhibition rate of >80%)
anti-cell proliferation activity against KRAS G12C mutant type cells NCI-H358 (in words) (NCI-H358 cells; 72 h, CellTiter-Glo): significant anti-cell proliferation activity
pIC50 (NCI-H358 cells; Homo sapiens, NCI-H358, 72 h, 72 h, CellTiter-Glo, test 3, read-out: IC50 value of cell proliferation inhibitory activity of NCI-H358): > 7.30
cell proliferation inhibitory activity on NCI-H358 compared with the corresponding compound with axial chiral S configuration (in words) (NCI-H358 cells; NCI-H358): significantly better
cell proliferation inhibitory activity of R-configuration compound relative to the corresponding axial chiral S-configuration compound (NCI-H358 cells; NCI-H358, 3-12M versus 3-12P): more than 5 times
cell proliferation inhibitory activity of NCI-H358 compared with AMG510 (in words) (NCI-H358 cells; test 8): better than AMG510
pIC50 (NCI-H358 cells; test 8, method of test 3, read-out: IC50 of proliferation inhibitory activity of the compound on NCI-H358 cell line): 8.10
